These results are taken from patent US5641861A, “μopioid receptor ligands: agonists and antagonists” (Torrey Pines Institute For Molecular Studies, priority 1995, dated 1997).

Where no end group is shown, it is not given here. [ ]: non-standard residue; d: D form.

One assay concerns MU RECEPTOR
The assay can be described thus: Agonist or antagonist activity by adenylyl cyclase assay or GPI assay (not specified which). The following applies: Table 13.

The next assay addresses T1, μ receptor (Homo sapiens, UniProt P35372).
T1 construct: An adenylyl cyclase assay using human SH-SY5Y neuroblastoma cell line membranes; endogenous in cells; host or cells: human SH-SY5Y neuroblastoma cells, retinoic-acid differentiated; membranes
The assay can be described thus: Adenylyl cyclase assay, SH-SY5Y neuroblastoma cell membranes. The format is biochemical. The following applies: AGONISTS section; cyclic AMP level, agonist alone at 100 μM.

Another assay concerns the target T2, δ receptors (Rattus norvegicus, UniProt P33533).
T2 construct: Radioreceptor assays selective for δ receptors were performed using rat brain homogenates; tissue Harlan Bioproducts for Science; host or cells: rat brain crude membrane homogenate
The assay can be described thus: Radioreceptor assay selective for δ receptors ([3H]-naltrindole). The following applies: ratio of IC50 values. The format is binding. The procedure: Radioreceptor assays selective for δ receptors were performed using rat brain homogenates as above and [^3 H]-naltrindole (0.5 nM, specific activity 34.7 Ci/mmol) as radioligand in Tris buffer containing 100 μM phenylmethylsulfonyl fluoride (PMSF), 5 mMMgCl2 and 1 mg/ml bovine serum albumin (BSA), pH 7.4. Samples were incubated for 2.5 hr. Standard curves were prepared using 0.10-3200 nM [^3 H]-D-Pen2, Pen5 ]-enkephalin ([^3 H]-DPDPE).

Another assay addresses T3, κ receptors (Cavia porcellus, UniProt P41144).
T3 construct: tissue homogenates prepared from guinea pig brains (cortex and cerebellum); tissue Harlan Bioproducts for Science; host or cells: guinea pig brain (cortex and cerebellum) homogenate
The assay is described as follows: Radioreceptor assay selective for κ receptors ([3H]-U69,593). Conditions: ratio of IC50 values. The format is binding, guinea pig. The procedure: Assays selective for κ receptors were carried out using [^3 H]-U69,593 (3 nM, specific activity 62 Ci/mmol) as the radioligand and tissue homogenates prepared from guinea pig brains (cortex and cerebellum) using Tris buffer containing 100 μM PMSF, 5 mMMgCl2 and 1 mg/ml BSA, pH 7.4. Sample tubes were incubated for 2.5 hr.

Another assay concerns guinea-pig ileum. Conditions: inhibition of electrically stimulated contraction; read-out: GPI IC50.
In the next assay the test system is mouse vas deferens. The assay is described as follows: Mouse vas deferens (MVD) bioassay. Conditions: inhibition of electrically stimulated contraction. The text has this: The mouse vas deferens (MVD) bioassay was also used to determine whether a peptide is an opioid agonist or an opiod antagonist. Again, such information is not available from the radioreceptor binding assay results.
The MVD assay (Henderson et al., Br. J. Pharma. 12:119-127 (1957), which is incorporated herein by reference) is another one of the most widely used assays for the determination of opioid activities in vitro. This assay, like the GPI assay, is based on the ability of opioid agonists to inhibit electrically stimulated contractions in tissue. The MVD assay is also not "clean" in that, in addition to the predominant δ receptor, the μ and κ receptors are also present. […]
Mouse vasa deferentia were dissected and placed in Krebs solution. The responses of the longitudinal muscle were recorded under a basal tension of 0.5 g and excited by pulses of 1 millisecond duration.
In all bioassays, a dose-response curve with a reference compound (e.g., [D-Ala^2, Leu^5 ]enkephelinamide or U50,488) is used in each preparation. […] Potencies of new compounds to be tested are determined relative to that of the reference compound, and their IC50 values are normalized based on an average IC50 value which has been obtained for the reference compound by performance of many determinations with a large number of preparations. […]

As a reminder, the IC50 is the concentration needed to halve the response being measured.

T1 sequence (P35372 whole entry): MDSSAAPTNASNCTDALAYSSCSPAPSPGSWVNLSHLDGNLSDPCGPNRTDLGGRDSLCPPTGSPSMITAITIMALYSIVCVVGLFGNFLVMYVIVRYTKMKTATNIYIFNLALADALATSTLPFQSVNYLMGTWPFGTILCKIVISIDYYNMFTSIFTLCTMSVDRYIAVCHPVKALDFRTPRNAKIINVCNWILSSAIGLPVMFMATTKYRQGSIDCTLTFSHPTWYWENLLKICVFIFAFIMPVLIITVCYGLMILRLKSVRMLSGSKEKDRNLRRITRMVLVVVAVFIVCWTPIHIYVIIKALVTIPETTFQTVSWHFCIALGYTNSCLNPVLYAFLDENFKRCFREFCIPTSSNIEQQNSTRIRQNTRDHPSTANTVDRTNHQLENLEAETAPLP
T3 sequence (P41144 whole entry): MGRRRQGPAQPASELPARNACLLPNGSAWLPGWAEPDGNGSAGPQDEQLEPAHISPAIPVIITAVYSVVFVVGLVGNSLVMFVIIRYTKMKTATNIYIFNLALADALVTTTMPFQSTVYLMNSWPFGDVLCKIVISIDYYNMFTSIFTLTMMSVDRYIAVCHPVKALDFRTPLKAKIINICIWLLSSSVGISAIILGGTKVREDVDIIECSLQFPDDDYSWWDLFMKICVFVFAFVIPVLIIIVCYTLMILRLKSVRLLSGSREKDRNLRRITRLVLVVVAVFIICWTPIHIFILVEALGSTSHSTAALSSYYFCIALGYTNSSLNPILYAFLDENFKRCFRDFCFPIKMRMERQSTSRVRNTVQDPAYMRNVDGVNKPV
T2 sequence (P33533 whole entry): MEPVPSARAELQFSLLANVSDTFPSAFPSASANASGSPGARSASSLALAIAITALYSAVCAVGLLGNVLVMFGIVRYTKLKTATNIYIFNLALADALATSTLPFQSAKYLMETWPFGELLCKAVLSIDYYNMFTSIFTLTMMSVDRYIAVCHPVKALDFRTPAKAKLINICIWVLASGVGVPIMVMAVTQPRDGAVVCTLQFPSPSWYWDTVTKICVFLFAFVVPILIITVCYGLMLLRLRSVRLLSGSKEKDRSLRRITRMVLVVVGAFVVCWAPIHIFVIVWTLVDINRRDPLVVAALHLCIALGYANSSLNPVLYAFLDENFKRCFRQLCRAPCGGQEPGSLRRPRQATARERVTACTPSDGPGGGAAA
Description for guinea-pig ileum: The GPI assay (Kosterlitz et al., Br. J. Pharam. 39:398-418 (1970), which is incorporated herein by reference), is one of the most widely used assays for the determination of opioid activities in vitro. The assay is based on the ability of opioid agonists to inhibit electrically stimulated contraction in tissue. GPI is not a "clean" assay insofar as the ileum preparation contains both μ and κ receptors. However, μ receptor mediated-effects in the GPI can be distinguished from κ receptor mediated effects by determining Ke values for naloxone as the antagonist (μ effects: Ke ~1-3 nM); κ effects: Ke ~20-30 nM) or by using specific μ or κ antagonists.
The guinea pigs were killed by decapitation. […] Isometric contractions were measured via strain gauge force transducers and recorded on stripchart recorders.
In all bioassays, a dose-response curve with a reference compound (e.g., [D-Ala^2, Leu^5 ]enkephelinamide or U50,488) is used in each preparation. […] Ke values for naloxone or other antagonists are determined from the ratio of IC50 values (DR) obtained with the peptide under investigation in the presence and absence of a fixed concentration of the antagonist, using the formula Ke =a/(DR-1) ("a"=fixed concentration). A log dose-response curve is obtained with [Leu^5 ]enkephalin for each ileum and vas deferens preparation and the IC50 value is determined. […]
Protocol for μ receptor: An adenylyl cyclase assay using human SH-SY5Y neuroblastoma cell line membranes was used to rapidly determine the opioid agonists or antagonist properties of individual peptides. Opioid agonist inhibit adenylyl cyclase activity, resulting in reduced levels of cyclic AMP.
Cell membranes were prepared for use in the adenylyl cyclase assays as previously described (Law et al., Mol. Pharmacol., 23:26-35 (1983), which is herein incorporated by reference). After the initial centrifugation at 200×g for 15 min at 4° C., the cells were resuspended in sucrose buffer (0.32M sucrose, 40 mM HEPES, 2 mMEGTA, pH 7.6). Cells were centrifuged again at 200×g, then homogenized in sucrose buffer with five strokes of a Dounce Homogenizer (Wheaton Instruments, Millville, N.J.). […]
SH-SY5Y membranes were incubated in a final volume of 100 μl of 40 mM HEPES, pH 7.7, containing 15 units of creatine phosphokinase, 20 mM phosphocreatine, 1 mM 1,10-o-phenanthroline, 60 μM isobutylmethylxanthine (IBMX), 50 μM ATP, 50 μM GTP, 3 mM MgCl2 and 100 mM NaCl. […] The amount of cyclic AMP present in 100 μl of the supernatant, equivalent to the cyclic AMP produced by 15 μg of membrane protein, was determined using a cyclic AMP kit (Diagnostic Products, Los Angeles, Calif.). […] The final supernatants were counted in 10 ml of Ecolite (+) scintillation fluid (ICN Pharmaceuticals, Covina, Calif.).

“(D)Ile--(D)Met--(D)Thr--(D)Trp--Gly--(D)Pro--NH2 ([dI][dM][dT][dW]G[dP]-NH2; N-terminus assumed; SMILES CC[C@@H](C)[C@@H](N)C(=O)N[C@H](CCSC)C(=O)N[C@@H](C(=O)N[C@H](Cc1c[nH]c2ccccc12)C(=O)NCC(=O)N1CCC[C@@H]1C(N)=O)[C@H](C)O) [SEQ ID NO. 130]”: in the assay with MU RECEPTOR, the “AGONIST OR ANTAGONIST” value was “Agonist”.

With `C[C@@H](NC(=O)[C@@H](N)Cc1ccc(O)cc1)C(=O)NCC(=O)N(C)[C@@H](Cc1ccccc1)C(=O)NCCO` [DAMGO, [D-Ala^2, MePhe^4, Gly-ol^5]enkephalin], the “% Basal Control” value at μ receptor was 34 ± 6%.

On to Trp--Trp--Pro--Arg--NH2 [SEQ ID NO. 69], for which, at δ receptors, the δ/μ is listed as 1,740. For the same compound, the κ/μ on κ receptors is on record as 2,060.

On to WWPKHK-NH2 [SEQ ID NO. 50], for which the values for the IC50 in the assay on guinea-pig ileum and in the assay on mouse vas deferens were 270 ± 19 nM and 45 ± 7 nM, respectively.
